The structures appear in SMILES notation. In brackets after ≈: the same amount, converted by molar mass. Residues, ends and D or L forms follow the SMILES beside them.

The test system of series [1] is S. aureus USA300. In words: Growth inhibition in TSB media (FIG. 15A). It is filed as cell-based, Staphylococcus aureus. The following applies: 3.1 μM (printed 3.1 LM), 37° C. As for the experimental part: FIGS. 15A and 15B show the growth inhibition (FIG. 15A) and propidium iodide-based membrane permeation (FIG. 15B) of S. aureus USA300 in TSB media by 3.1 μM of TetraF2W-RR and its single arginine variants (Table 8) at 37° C. with shaking at 100 rpm.
Fluorescence spectroscopy was also used to follow bacterial killing. In brief, μL of serially diluted 10× peptide concentrations were done in 96-well coming COSTAR microtiter plates. Propidium iodide at a fixed concentration of 20 μM per well was added to each well which was finally incubated with 88 μL of S. aureus USA300 (with a final OD600 0.1) with continuous shaking at 100 rpm with meander corner well shaking, 37° C. in a FLUOstar® Omega (BMG LABTECH Inc., NC) microplate reader. The plates were read every 5 minutes for a total duration of 2 hours with excitation and emission wavelengths at 584 nm and 620 nm, respectively.

Series [2] concerns S. aureus USA300. In words: Live cell penetration experiment (FITC, confocal). Particulars: peptide and FITC 12.5 μM. It is filed as cell-based, Staphylococcus aureus. As for the experimental part: The entrance of a fluorescent dye into live bacterial cells was followed by confocal microscopy (Mishra et al. (2015) RSC Advances 5:59758-59769). In short, S. aureus USA300 was grown to the exponential phase from the overnight culture. The cells were then washed twice with fresh 1×PBS (pH 7.2) and the final cell density was adjusted to 1×10^8 CFU/mL. 1500 μL of the culture was added to the chambers of cuvettes (borosilicate cover glass systems) with equimolar concentrations of TetraF2W-RK and fluorescein isothiocyanate FITC (12.5 μM). The samples were examined with a confocal laser scanning microscope (Zeiss 710) with a series of live time pictures taken at every 5 seconds for 5 minutes and the data were processed using Zen 2010 software.

The subject of series [3] is S. aureus USA300. The series is described as follows: Confocal microscopy of preformed biofilms (Example 3). It counts as cell-based, Staphylococcus aureus. How it is done: S. aureus USA300 (10^5 CFU/mL) was made from exponentially growing bacteria. 1800 μL was added to the chamber of cuvettes (Borosilicate cover glass systems), and was incubated for 37° C., 24 hours for biofilm formation. Media was then pipetted out and chambers were washed with 1×PBS to remove non-adhered cells. To disrupt the preformed biofilms, 200 μL of 10× stocks of the peptide was added followed by 1800 μL of TSB. Control cuvettes contained water instead of peptide. The cuvettes were again incubated for another 24 hours at 37° C. Subsequently, the supernatant was pipetted out and the chambers were washed with 1×PBS. For evaluation under confocal microscope the biofilms were stained with 10 μL of LIVE/DEAD® kit (Invitrogen Molecular Probes) according to the manufacturer's instructions. The samples were examined with a confocal laser scanning microscope (Zeiss 710) and the data processed using Zen 2010 software.

Series [4] concerns S. aureus USA300. It counts as cell-based, Staphylococcus aureus. The following applies: 12.5 μM. How it is done:
Two types of experiments were conducted to evaluate the anti-biofilm activity of these peptides against S. aureus USA300 grown under a static condition for 24 hours to form established biofilms in presence of tryptic soy broth (TSB). The experiment was set up using a flat bottom, 96-well, polystyrene microtiter plates (Corning, COSTAR). In short, S. aureus USA300 (10^5 CFU/mL) in fresh TSB media was made from an exponentially growing culture. 200 μL of this bacterial culture was added to each well of the microtiter plates. The plates are then incubated at 37° C. for 24 hours to allow biofilm formation. Media was then carefully removed followed by washing with sterile 1×PBS to remove any unattached bacteria. Solution containing μL of 10× peptide solution and 180 μL of fresh TSB were added. The plates were again incubated at 37° C. for another 24 hours. To measure the extent of biofilm disruption by the peptides as a function of biofilm reduction, crystal violet staining was performed. Media was pipetted out and the wells were carefully washed with 200 μL of PBS to remove the loosely attached cells. Subsequently, 200 μL of 99% methanol was added for fixation and the plates were allowed to sit for 15 minutes. The plates were finally aspirated and dried. Lastly, staining was done with 200 μL of 1% crystal violet in water for 5 minutes. Excess stain was gently rinsed off with tap water, and plates were air-dried. Further, stains were solubilized in 200 μL of 33% glacial acetic acid followed by colorimetric measurement at 600 nm on a Chromate® microtiter plate reader. The amounts of biofilm growth with and without compound treatments were calculated.
In addition, live cell contents of the peptide acted biofilms was estimated by XTT [2,3-bis(2-methyloxy-4-nitro-5-sulfophenyl)-2H-tertazolium-5-carboxanilide]assay by following the manufacturer's instructions with modifications. A 10% XTT solution in TSB media was added to each well and the plates were again incubated for 2 hours at 37° C. Absorbance at 450 nm (only media with XTT containing wells served as the blank) was obtained using Chromate® microtiter plate reader. Percentage of biofilm reduction for the peptide was plotted assuming 100% biofilm growth is achieved on the bacterial wells without peptide treatment.

The subject of series [5] is human red blood cells. In words: Hemolytic ability (Example 3). It counts as cell-based. The following applies: concentration that causes 50% hemolysis. As for the experimental part:
Hemolytic analysis of selected peptides was performed using an established protocol. Briefly, human blood cells (UNMC Blood Bank) were washed three times with phosphate buffer saline (PBS) and diluted to a 2% solution. After peptide treatment, incubation at 37° C. for one hour, and centrifugation at 13,000 rpm, aliquots of the supernatant were transferred to a fresh 96-well microplate. To assess peptide cytotoxicity, the amount of hemoglobin released was measured at 545 nm. The percent lysis was calculated by assuming 100% release when human blood cells were treated with 1% TRITON™ X-100, and 0% release when incubated with PBS buffer.

Series [6] has as its system E. coli ATCC 25922. It is filed as cell-based, Escherichia coli. Particulars: ATCC 25922, 20 h. How it is done:
(§1) The antimicrobial activity of peptides was evaluated using a standard broth microdilution protocol. In brief, exponential phase bacteria at 10^6 CFU were incubated with serially diluted peptides overnight for ˜20 hours at 37° C. The plates were read on a ChroMate® 4300 Microplate Reader at 630 nm (GMI, Ramsey, Minn.).

Series [7] relates to S. aureus USA300. It is filed as cell-based, Staphylococcus aureus. As for the experimental part: as §1
Series [8] relates to S. aureus USA300 LAC. It counts as cell-based, Staphylococcus aureus. Particulars: USA300. As for the experimental part:
(§2) Bacterial strains used in this study included Enterococcus faecium ATCC51559, Staphylococcus aureus USA300 LAC, Klebsiella pneumoniae ATCC 13883, Acinetobacter baumannii B2367-12, Pseudomonas aeruginosa PAO1, Enterobacter cloacae B2366-12 and Escherichia coli ATCC 25922, wherein the first six constituting the ESKAPE pathogens. Tryptic soy broth (TSB) for bacterial growth was obtained from BD Bioscience (Sparks, Md.).
(§3) The antibacterial activity of peptides was evaluated using a standard broth microdilution protocol as described (Wang et al. (2012) Antimicrob. Agents Chemother., 56:845-856). In brief, 5 μl of each bacterium (stored at −80° C.) were inoculated into TSB medium (2 ml) and grown overnight. A second inoculation was made in the morning by delivering 10 μl of the overnight culture to a fresh TSB medium. After 2-3 hours growth at 37° C., 225 rpm, logarithmic phase bacterial cultures (OD600≈0.5) were diluted and partitioned into a 96-well polystyrene microplate with ˜10^5 colony forming units (CFU) per well (90 μl aliquots). After treatment with 10 μl of peptide solutions at various concentrations, microplates were incubated at 37° C. overnight and read on a ChroMate® 4300 Microplate Reader at 630 nm (GMI, Ramsey, Minn.). The medium was used as a blank where no bacteria should grow.

Series [9] has as its system E. coli ATCC 25922. It counts as cell-based, Escherichia coli. The following applies: ATCC 25922. How it is done:
as §2, §3

Series [10] deals with human red blood cells (hRBC). It is filed as cell-based. Particulars: red cells of human. As for the experimental part:
Blood was obtained from the Blood Bank of the University of Nebraska Medical Center (UNMC) and washed three times (800 g, 10 minutes) with normal saline to remove plasma. A final solution containing 2% human red blood cells (hRBC) was then prepared in normal saline and used for the assay. 90 μl of this solution were added to 10 μl of serially diluted peptide solutions and incubated at 37° C. for 1 hour. It was then centrifuged at 15,700 g for 5 minutes on an Eppendorf® bench-top centrifuge 5415D. Aliquots of the supernatant (˜80 μl) were carefully transferred to a fresh 96-well microplate (Costar, Corning, N.Y.) and absorbance was read at 545 nm to detect the amount of hemoglobin released. Percent lysis was calculated based on the extent of hemoglobin released, where 100% release is assumed in the presence of 1% TRITON™ X-100 and 0% release is assumed in saline.

Series [11] relates to P. aeruginosa PAO1. It is filed as cell-based, Pseudomonas aeruginosa. The following applies: PAO1. As for the experimental part:
as §2, §3

A short description of series [12]: Cytotoxicity of soluble peptide (MTS). The following applies: human, HaCaT cells; free peptide; read-out: 50% lethal concentration (LC50) to HaCaT cells. It is filed as cell-based. As for the experimental part:
In vitro spontaneously transformed keratinocytes from histologically normal human skin (HaCaT cells) from Fisher (Hampton, N.H.) (Cat # T0020001) were maintained in DMEM high glucose medium with 4 mM L-glutamine (HyClone, South Logan, Utah) and 100 U ml^−1 penicillin, 100 μg ml^−1 streptomycin (pen/strep, p/s) (Life Technologies, Carlsbad, Calif.), and 10% (v v^−1) inactivated fetal bovine serum (FBS, NyClone), DMEM with 10% FBS, p/s. Cells were grown in 5% CO2 at 37° C. and were detached from culturing dish at 100% confluency by treating with 0.025% trypsin-EDTA (NyClone), seeded (100,000 cells well^−1) in 24-well plates (Corning Life Science, Salt Lake City, Utah) and grown overnight in 200 μl of DMEM medium to reach a 70% confluency. The peptide-coated surfaces (1.0×1.0 cm) were placed in a 24-well plate DMEM with or without 10% FBS, p/s for 1 hour. Samples were taken out and 60 μl of CellTiter96® MTS were added. Plates were further incubated for another 2 hours at 37° C. Subsequently, 100 μl of the solution were placed in a clean 96-well plate to measure the absorbance at 492 nm on a ChroMate® reader (GMI). For comparison, the toxicity of the soluble peptides was also measured and they were treated in the same way as described above. The culture medium and a 0.2% SDS solution were used as negative and positive controls, respectively.

In series [13] the test system is E. cloacae B2366-12. It is filed as cell-based, Enterobacter cloacae. The following applies: B2366-12. As for the experimental part: as §2, §3
Series [14] relates to E. faecium ATCC51559. It counts as cell-based, Enterococcus faecium. Particulars: ATCC51559. How it is done:
as §2, §3

For series [15], the system named is A. baumannii B2367-12. It is filed as cell-based, Acinetobacter baumannii. Particulars: B2367-12. As for the experimental part: as §2, §3
Series [16] deals with ESKAPE pathogens. It is filed as cell-based. How it is done: as §2, §3

For the compound `CC(C)C[C@H](NC(=O)[C@H](Cc1c[nH]c2ccccc12)NC(=O)[C@H](Cc1c[nH]c2ccccc12)NC(=O)[C@@H](N)Cc1c[nH]c2ccccc12)C(=O)N[C@@H](CCCNC(=N)N)C(=O)N[C@@H](CCCNC(=N)N)C(=O)N[C@@H](CCCNC(=N)N)C(=O)N[C@@H](Cc1c[nH]c2ccccc12)C(N)=O` [Peptide I7R, WWWLRRRW] (H-WWWLRRRW-NH2; N-terminus assumed), in series [1], the “growth inhibition of S. aureus USA300” value is on record as “almost equally effective to the WT”. The “time to entry of FITC into bacteria after peptide treatment” value in [2] came out at 28 s. The “killing in 24 hour preformed biofilms (LIVE/DEAD confocal)” value in series [3] is given as “the majority of cells are red”. In addition, in [4], the “killing in preformed biofilms (XTT)” value came to 80%. This compound showed an HL50 in series [5] of 150 µM. Besides, the “E. coli (MIC)” value in [6] stood at 6.2 µM. Besides, in series [7] (HL50 human red blood cells / MIC S. aureus USA300), the “cell selectivity index (ratio of HL50 and MIC)” value worked out at 48. Moreover, the “S. aureus (MIC)” value in [7] (USA300, 20 h) was determined as 3.1 µM.

For `CC[C@H](C)[C@H](NC(=O)[C@H](CCCNC(=N)N)NC(=O)[C@H](CCC(N)=O)NC(=O)[C@@H](NC(=O)[C@@H](NC(=O)[C@H](CCCNC(=N)N)NC(=O)[C@H](CCCCN)NC(=O)[C@@H](N)Cc1ccccc1)[C@@H](C)CC)C(C)C)C(=O)N[C@@H](CCCCN)C(=O)N[C@@H](CC(=O)O)C(=O)N[C@@H](Cc1ccccc1)C(=O)N[C@@H](CC(C)C)C(=O)N[C@@H](CCCNC(=N)N)C(=O)N[C@@H](CC(N)=O)C(=O)N[C@@H](CC(C)C)C(=O)N[C@H](C(=O)N[C@@H](CS)C(=O)O)C(C)C` [FK-16Cys] (H-FKRIVQRIKDFLRNLVC-OH; N-terminus and C-terminus assumed), in series [8], the “MIC SA” value came out at 18 ± 7.2 µM (≈ 38.7 µg/mL). The “MIC EC” value in series [9] stood at 37.5 ± 17.6 µM (≈ 80.6 µg/mL). Moreover, the “50% hemolytic concentration (HL50)” value in series [10] is around 35 µM. In [11], the “MIC PA” value was above 50 µM. Also, the CC50 at 1 hour in [12] is above 100 µM. The “MIC ECl” value in series [13] was found to be 50 ± 0 µM (≈ 107 µg/mL). The “MIC EF” value in series [14] came to 12.5 ± 0 µM (≈ 26.9 µg/mL). Besides, the “MIC AB” value in series [15] was 12.5 ± 0 µM (≈ 26.9 µg/mL). In addition, the “MIC range against almost all / most of the tested strains” value in [16] is 12.5 to 50 µM.

For the origin of these results see patent US20190048052A1, “ANTI-MICROBIAL PEPTIDES AND COATINGS” (Board of Regents of the University of Nebraska, priority 2016, published 2019).
